# Laboratory results as given in patent publication US12622918B2, “Formulations and dosages for administering a compound that inhibits MCL1 protein” (Amgen Inc., priority 2019, dated 2026).
# Experiments:
# human blood = assay: In vitro hemolysis of whole blood, human; conditions: highest concentration tested, 0.25 mg/mL
# [1] = Plasma concentration in OPM2-Luc tumor-bearing mice; format: in vivo; conditions: 60 mg/kg oral gavage; female athymic nude mice
# Protocol: Activation of the pro-apoptotic pore-forming protein BAK and proteolytic cleavage of the cysteine-aspartic acid protease caspase 3 (hallmarks of the induction of apoptosis) in MCL1-dependent OPM2-Luc multiple myeloma tumor cells served as a PD assay. Female athymic nude mice were injected with 5×10^6 cells in 0.1 mL subcutaneously (SC). […] Mice were euthanized 2, 4, 8, 12, and 24 hours postdose (n=3/group), terminal plasma samples were collected for PK analysis, and tumors were halved and snap frozen in liquid nitrogen for PK and molecular analyses. Tumor lysates were prepared for evaluation of BAK activation and caspase 3 cleavage using an electrochemiluminescence immunoassay. Tumors treated with vehicle (25% HPβCD, pH 8) served as a negative control and indicated the baseline level of apoptosis.
# [2] = system: subjects with relapsed/refractory acute myelogenous leukemia; assay: Phase 1 FIH study, acute myeloid leukemia part 3; format: in vivo, human
# Protocol: In part 3, 10 total subjects were enrolled across 2 cohorts, with doses of 60 mg/m^2 or 120 mg/m^2.
# MOLM-13 = assay: Cell viability (CellTiterGlo), MOLM-13; format: cell-based; conditions: Homo sapiens; MOLM-13, AML; 24 hours; 10% FBS; read-out: AMS 176 IC50
# [3] = system: Molm13-Luc orthotopic tumors; assay: MOLM-13 Luc acute myeloid leukemia orthotopic model; format: in vivo; conditions: for TGI (tumor burden, whole body luminescence): female NSG mice
# Protocol: On day 0, 70 female NSG mice were injected IV with 5×10^4 human Molm13-Luc AML tumor cells.
# Dog MCL1 = Dog MCL1 (Canis lupus familiaris, UniProt Q8HYS5); assay: Cell-free TR-FRET BIM-binding assay, Dog MCL1; conditions: BIM-binding partner Dog MCL1; n = 3
# Mouse MCL1 = Mouse MCL1 (Mus musculus, UniProt P97287); assay: Cell-free TR-FRET BIM-binding assay, Mouse MCL1; conditions: BIM-binding partner Mouse MCL1; n = 3
# [4] = system: OPM2 multiple myeloma tumor cell line; assay: Viability of OPM2 cells; format: cell-based; conditions: Homo sapiens
# Karoas620 = assay: Cell viability (CellTiterGlo), Karoas620; format: cell-based; conditions: Karoas620, Multiple myeloma; 24 hours; 10% FBS; read-out: AMS 176 IC50
# [5] = system: OPM2-Luc tumor xenografts; assay: OPM2-Luc xenograft efficacy, intermittent dosing; format: in vivo; conditions: for animals tumor free: day 26
# Protocol: OPM2-Luc cells (5×10^6) were implanted subcutaneously into female athymic nude mice. […] With all tested doses and schedules, dose-dependent TGI was observed (FIG. 5). […] Six of 10 animals in the 60 mg/kg 5 days on/2 days off group and 10 of 10 animals in the once daily group were tumor free on day 26.
# Rabbit MCL1 = Rabbit MCL1 (Oryctolagus cuniculus, UniProt G1T2Q0); assay: Cell-free TR-FRET BIM-binding assay, Rabbit MCL1; conditions: BIM-binding partner Rabbit MCL1; n = 3
# Ramos = assay: Cell viability (CellTiterGlo), Ramos; format: cell-based; conditions: Homo sapiens, NHL, 24 hours, 10% FBS, read-out: AMS 176 IC50
# rat blood = assay: In vitro hemolysis of whole blood, rat; conditions: 0.048, 0.12, 0.24, 1.2, and 2.4 mg/mL, vehicles containing hydroxypropyl-β-cyclodextrin
# U26681 = assay: Cell viability (CellTiterGlo), U26681; format: cell-based; conditions: U26681, Multiple myeloma; 24 hours; 10% FBS; read-out: AMS 176 IC50
# [6] = system: Adult patients with relapsed or refractory AML; assay: Dose-escalation study in relapsed or refractory AML, data cutoff May 17, 2019; format: in vivo
# Protocol: Escalating doses started at 60 mg/m^2. For dose levels ≥180 mg/m^2, a lead-in dose of 120 mg/m^2 was implemented during week 1. Primary objectives included the evaluation of safety, tolerability, and pharmacokinetics. The secondary objective was a preliminary evaluation of efficacy, assessed using ELN criteria. Exploratory endpoints included pharmacodynamic evaluation of MCL-1 inhibition in circulating AML blasts.
# RL = assay: Cell viability (CellTiterGlo), RL; format: cell-based; conditions: Homo sapiens, NHL, 24 hours, 10% FBS, high dose 20 μM, read-out: AMS 176 IC50
# KMS-12-PE = assay: Cell viability (CellTiterGlo), KMS-12-PE; format: cell-based; conditions: Homo sapiens, Multiple myeloma, 24 hours, 10% FBS, read-out: AMS 176 IC50
# [7] = TEAEs occurring in ≥2 patients, N = 11
# Chain of Mouse MCL1 (P97287 whole entry): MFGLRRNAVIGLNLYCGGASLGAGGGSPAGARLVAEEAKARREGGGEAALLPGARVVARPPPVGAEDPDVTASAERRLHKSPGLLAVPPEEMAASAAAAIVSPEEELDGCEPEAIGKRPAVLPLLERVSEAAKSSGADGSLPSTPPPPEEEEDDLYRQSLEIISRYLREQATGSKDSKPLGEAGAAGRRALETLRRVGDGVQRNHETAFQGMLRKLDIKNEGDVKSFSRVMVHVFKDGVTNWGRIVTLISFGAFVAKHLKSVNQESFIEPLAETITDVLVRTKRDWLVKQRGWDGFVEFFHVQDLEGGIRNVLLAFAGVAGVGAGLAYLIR
# Chain of Rabbit MCL1 (G1T2Q0 1-352): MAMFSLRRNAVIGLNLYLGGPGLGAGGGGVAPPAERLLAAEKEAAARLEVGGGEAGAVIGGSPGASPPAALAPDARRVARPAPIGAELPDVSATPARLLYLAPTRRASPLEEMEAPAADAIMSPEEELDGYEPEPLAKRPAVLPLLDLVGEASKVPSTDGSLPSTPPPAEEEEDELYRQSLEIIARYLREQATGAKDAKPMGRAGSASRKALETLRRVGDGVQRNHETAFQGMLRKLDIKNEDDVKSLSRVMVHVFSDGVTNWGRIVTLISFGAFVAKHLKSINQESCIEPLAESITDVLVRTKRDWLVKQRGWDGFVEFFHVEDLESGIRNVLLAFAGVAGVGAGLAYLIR
# Chain of Dog MCL1 (Q8HYS5 whole entry): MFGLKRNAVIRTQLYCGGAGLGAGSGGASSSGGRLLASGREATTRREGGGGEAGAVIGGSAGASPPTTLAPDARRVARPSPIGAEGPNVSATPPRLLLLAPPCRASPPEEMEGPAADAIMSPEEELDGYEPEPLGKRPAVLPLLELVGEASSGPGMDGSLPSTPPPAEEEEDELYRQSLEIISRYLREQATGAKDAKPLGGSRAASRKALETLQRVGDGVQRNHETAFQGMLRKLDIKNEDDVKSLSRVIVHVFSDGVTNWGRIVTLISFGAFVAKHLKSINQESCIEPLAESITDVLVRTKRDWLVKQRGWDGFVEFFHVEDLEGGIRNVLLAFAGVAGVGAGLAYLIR
smiles,measurement,setting,value
CO[C@H]1/C=C/C[C@H](C)[C@@H](C)S(=O)(=O)NC(=O)c2ccc3c(c2)N(C[C@@H]2CC[C@H]21)C[C@@]1(CCCc2cc(Cl)ccc21)CO3 [AMG 176],hemolysis of whole blood,human blood,not hemolytic
same,time point of peak AMG 176 plasma concentration,[1],4 h
same,"Grade 3 adverse events, subjects",[2]; AML part 3,70%
same,"Serious adverse events, subjects",[2]; AML part 3,60%
same,"adverse events considered related to AMG 176, subjects",[2]; AML part 3,40%
same,"adverse events leading to discontinuation of investigational product, subjects",[2]; AML part 3,20%
same,fatal adverse events,[2]; AML part 3,No fatal adverse events occurred
same,febrile neutropenia leading to discontinuation,[2]; AML part 3,10%
same,"grade 4 adverse events, subjects",[2]; AML part 3,20%
same,related increased blood bilirubin,[2]; AML part 3,20%
same,related nausea,[2]; AML part 3,20%
same,superior vena cava syndrome leading to discontinuation,[2]; AML part 3,10%
same,"adverse events, subjects","[2]; AML part 3, 10 subjects",80%
same,"anemia, subjects","[2]; AML part 3, any grade",20%
same,"hypokalemia, subjects","[2]; AML part 3, any grade",30%
same,"hypomagnesemia, subjects","[2]; AML part 3, any grade",20%
same,"increased blood bilirubin, subjects","[2]; AML part 3, any grade",20%
same,"nausea, subjects","[2]; AML part 3, any grade",30%
same,"peripheral edema, subjects","[2]; AML part 3, any grade",30%
same,"pyrexia, subjects","[2]; AML part 3, any grade",20%
same,"vomiting, subjects","[2]; AML part 3, any grade",20%
same,anemia of grade 3 or higher,"[2]; AML part 3, both cohorts combined",20%
same,exposures (Cmax and AUC) versus dose,"[2]; AML, 10 subjects, 60 or 120 mg/m^2, preliminary",generally increased with increasing doses
same,IC50,MOLM-13,241 nM
same,"TGI (tumor burden, whole body luminescence)",[3]; 30 mg/kg oral QD2,28%
same,"TGI (tumor burden, whole body luminescence)",[3]; 60 mg/kg oral QD2,69%
same,"TGI (tumor burden, whole body luminescence)",[3]; 100 mg/kg oral QD,86%
same,overt toxicity by changes in body weight,[3]; all AMG 176 groups,No evidence of overt toxicity
same,IC50,Dog MCL1,0.284 nM
same,IC50,Mouse MCL1,49.8 nM
same,IC50,"[4]; OPM-2, growth medium containing 5% human serum",703 nM
same,IC50,"[4]; OPM-2, growth medium containing 10% fetal bovine serum",236 nM
same,IC50,"[4]; OPM-2, serum-free growth medium",15.5 nM
same,IC50,Karoas620,487 nM
same,TGI,[5]; 30 mg/kg 2 days on/5 days off,54%
same,TGI,[5]; 30 mg/kg 5 days on/2 days off,85%
same,effect on growth of established OPM2-Luc tumors,"[5]; 30 mg/kg and 60 mg/kg, two days on/5 days off and 5 days on/2 days off, summary statement",significantly inhibited the growth
same,TGI,[5]; 30 mg/kg once daily oral gavage,84%
same,tumor regression,[5]; 60 mg/kg 2 days on/5 days off,21%
same,tumor regression,[5]; 60 mg/kg 5 days on/2 days off,87%
same,animals tumor free,[5]; 60 mg/kg 5 days on/2 days off,Six of 10
same,tumor regression,[5]; 60 mg/kg once daily,100%
same,animals tumor free,[5]; 60 mg/kg once daily,10 of 10
same,overt toxicity by body weight and body score assessment,"[5]; 30 or 60 mg/kg, all schedules",No evidence of overt toxicity
same,IC50,Rabbit MCL1,0.191 nM
same,IC50,Ramos,34 nM
same,hemolysis of whole blood,rat blood,cased hemolysis
same,IC50,U26681,8220 nM
same,plasma exposures versus dose,[6]; 60-180 mg/m^2,increased in a dose-related manner
same,"Treatment-related AEs, patients","[6]; AML, 11 patients",46%
same,fatal adverse events,"[6]; AML, 11 patients",No fatal adverse events were observed
same,"grade ≥3 TEAEs, patients","[6]; AML, 11 patients",73%
same,grade ≥3 anemia,"[6]; AML, 11 patients",18%
same,"grade ≥3 treatment-related AEs, patients","[6]; AML, 11 patients",18%
same,"nausea, any grade","[6]; AML, 11 patients",36%
same,"peripheral edema, any grade","[6]; AML, 11 patients",36%
same,"TEAEs of any grade, patients","[6]; AML, 11 patients, 60-180 mg/m^2 IV",91%
same,"Anemia, Grade ≥3","[6]; Grade ≥3 TEAEs occurring in ≥2 patients, N = 11",2 (18.2) n (%)
same,time of maximum plasma concentrations,[6]; IV infusion over a minimum of 2 hours,close to the end of intravenous infusion
same,All TEAEs,[6]; Patients (N = 11),10 (90.9) n (%)
same,TEAEs Fatal,[6]; Patients (N = 11),0 n (%)
same,TEAEs Grade ≥3,[6]; Patients (N = 11),8 (72.7) n (%)
same,TEAEs Serious,[6]; Patients (N = 11),8 (72.7) n (%)
same,Anemia,[6]; [7],2 (18.2) n (%)
same,Hypokalemia,[6]; [7],2 (18.2) n (%)
same,Hypomagnesemia,[6]; [7],2 (18.2) n (%)
same,Increased blood bilirubin level,[6]; [7],2 (18.2) n (%)
same,Nausea,[6]; [7],4 (36.4) n (%)
same,Peripheral edema,[6]; [7],4 (36.4) n (%)
same,Vomiting,[6]; [7],2 (18.2) n (%)
same,maximum tolerated dose,[6]; at the data cutoff date,not yet reached
same,"safety, tolerability, and pharmacokinetic profile","[6]; monotherapy, dose levels evaluated",acceptable
same,pharmacodynamic impact in peripheral blood AML blasts,"[6]; patient achieving CRi, 3 hours postinfusion",release of the proapoptotic protein Bax and activation of effector caspase 3
same,IC50,RL,> 20000 nM
same,IC50,KMS-12-PE,131 nM
